Laboratory results: PubChem BioAssay AID2060902 (Molecular Pharmacology Branch, DTP, NCI, 2025)

Tested on: 485368-065-R3-J5-PDC spheroids with HUVEC/MSC, viability
Assay: Anticancer human tumor 485368-065-R3-J5-PDC patient-derived pancreatic carcinoma cell line growth inhibition [RAS]
Settings: for IC50: curve of first compound; for viability, T/C: stronger effect = lower value
In short: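 Tumour cells grown as complex spheroids with HUVEC endothelial cells and mesenchymal stem cells, treated with RAS pathway inhibitor combinations. Each agent spans half-log steps from near clinical Cmax, or 10 microM where Cmax is unknown.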

[1] = second compound 0.0316 µM, first compound 0.0316 µM
[2] = second compound 0.0316 µM, first compound 0.1 µM
[3] = second compound 0.0316 µM, first compound 0.316 µM
[4] = second compound 0.0316 µM, first compound 1 µM
[5] = second compound 0.1 µM, first compound 0.0316 µM
[6] = second compound 0.1 µM, first compound 0.1 µM
[7] = second compound 0.1 µM, first compound 0.316 µM
[8] = second compound 0.1 µM, first compound 1 µM
[9] = second compound 0.316 µM, first compound 0.0316 µM
[10] = second compound 0.316 µM, first compound 0.1 µM
[11] = second compound 0.316 µM, first compound 0.316 µM
[12] = second compound 0.316 µM, first compound 1 µM
[13] = second compound 1 µM, first compound 0.0316 µM
[14] = second compound 1 µM, first compound 0.1 µM
[15] = second compound 1 µM, first compound 0.316 µM
[16] = second compound 1 µM, first compound 1 µM
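Note: spheroids exposed to agents for seven days before readout.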

CCC(CC)c1cc(NC2CCC(N)C2)n2nccc2n1 (stereo unspecified) + C=CC(=O)N1CCN(c2nc(OCC3CCCN3C)nc3c(F)c(-c4nc(N)cc(C)c4C(F)(F)F)c(Cl)cc23)C(C)C1
IC50 (second compound 0.00316 µM): 1.95 µM | IC50 (second compound 0.01 µM): 1.99 µM | IC50 (second compound 0.0316 µM): 1.95 µM | IC50 (second compound 0.1 µM): 1.97 µM | IC50 (second compound 0.316 µM): 1.94 µM | IC50 (second compound 1 µM): 1.98 µM | viability, T/C (second compound 0.00316 µM, first compound 0.0316 µM): 107% | viability, T/C (second compound 0.00316 µM, first compound 0.1 µM): 93% | viability, T/C (second compound 0.00316 µM, first compound 0.316 µM): 114% | viability, T/C (second compound 0.00316 µM, first compound 1 µM): 133% | viability, T/C (second compound 0.00316 µM, first compound 3.16 µM): 3.52% | viability, T/C (second compound 0.00316 µM, first compound 10 µM): 6.56% | viability, T/C (second compound 0.01 µM, first compound 0.0316 µM): 118% | viability, T/C (second compound 0.01 µM, first compound 0.1 µM): 108% | viability, T/C (second compound 0.01 µM, first compound 0.316 µM): 109% | viability, T/C (second compound 0.01 µM, first compound 1 µM): 136% | viability, T/C (second compound 0.01 µM, first compound 3.16 µM): 3.73% | viability, T/C (second compound 0.01 µM, first compound 10 µM): 5.65% | viability, T/C [1]: 101% | viability, T/C [2]: 109% | viability, T/C [3]: 112% | viability, T/C [4]: 134% | viability, T/C (second compound 0.0316 µM, first compound 3.16 µM): 3.48% | viability, T/C (second compound 0.0316 µM, first compound 10 µM): 4.43% | viability, T/C [5]: 93.7% | viability, T/C [6]: 104% | viability, T/C [7]: 117% | viability, T/C [8]: 143% | viability, T/C (second compound 0.1 µM, first compound 3.16 µM): 3.81% | viability, T/C (second compound 0.1 µM, first compound 10 µM): 6.8% | viability, T/C [9]: 94.8% | viability, T/C [10]: 108% | viability, T/C [11]: 106% | viability, T/C [12]: 132% | viability, T/C (second compound 0.316 µM, first compound 3.16 µM): 3.87% | viability, T/C (second compound 0.316 µM, first compound 10 µM): 7.93% | viability, T/C [13]: 97.5% | viability, T/C [14]: 92.3% | viability, T/C [15]: 120% | viability, T/C [16]: 133% | viability, T/C (second compound 1 µM, first compound 3.16 µM): 5.49% | viability, T/C (second compound 1 µM, first compound 10 µM): 10.8%

O=C(c1ccc(F)c(F)c1Nc1ccc(I)cc1F)N1CC(O)([C@@H]2CCCCN2)C1 + C#Cc1c(F)ccc2cc(O)cc(-c3ncc4c(N5CC6CCC(C5)N6)nc(OCC56CCCN5CC(F)C6)nc4c3F)c12
IC50 (second compound 0.0316 µM): 0.0315 µM | IC50 (second compound 0.1 µM): 0.0337 µM | IC50 (second compound 0.316 µM): 0.0375 µM | IC50 (second compound 1 µM): 0.0263 µM | IC50 (second compound 3.16 µM): 0.00898 µM | IC50 (second compound 10 µM): < 0.00316 µM | viability, T/C (second compound 0.0316 µM, first compound 0.00316 µM): 90.3% | viability, T/C (second compound 0.0316 µM, first compound 0.01 µM): 65.9% | viability, T/C [1]: 49.5% | viability, T/C [2]: 31.9% | viability, T/C [3]: 28.1% | viability, T/C [4]: 8.9% | viability, T/C (second compound 0.1 µM, first compound 0.00316 µM): 80.8% | viability, T/C (second compound 0.1 µM, first compound 0.01 µM): 68.9% | viability, T/C [5]: 50% | viability, T/C [6]: 32.3% | viability, T/C [7]: 26% | viability, T/C [8]: 9.17% | viability, T/C (second compound 0.316 µM, first compound 0.00316 µM): 91.1% | viability, T/C (second compound 0.316 µM, first compound 0.01 µM): 73% | viability, T/C [9]: 46.6% | viability, T/C [10]: 39.4% | viability, T/C [11]: 25.4% | viability, T/C [12]: 9% | viability, T/C (second compound 1 µM, first compound 0.00316 µM): 87.4% | viability, T/C (second compound 1 µM, first compound 0.01 µM): 62% | viability, T/C [13]: 48.6% | viability, T/C [14]: 31.1% | viability, T/C [15]: 22.5% | viability, T/C [16]: 8.96% | viability, T/C (second compound 3.16 µM, first compound 0.00316 µM): 58.8% | viability, T/C (second compound 3.16 µM, first compound 0.01 µM): 50% | viability, T/C (second compound 3.16 µM, first compound 0.0316 µM): 38.7% | viability, T/C (second compound 3.16 µM, first compound 0.1 µM): 24% | viability, T/C (second compound 3.16 µM, first compound 0.316 µM): 19.9% | viability, T/C (second compound 3.16 µM, first compound 1 µM): 5.77% | viability, T/C (second compound 10 µM, first compound 0.00316 µM): 45.1% | viability, T/C (second compound 10 µM, first compound 0.01 µM): 29.8% | viability, T/C (second compound 10 µM, first compound 0.0316 µM): 26.5% | viability, T/C (second compound 10 µM, first compound 0.1 µM): 17.2% | viability, T/C (second compound 10 µM, first compound 0.316 µM): 11.2% | viability, T/C (second compound 10 µM, first compound 1 µM): 3.65%

CC(C)NCC(C(=O)N1CCN(c2ncnc3c2C(C)CC3O)CC1)c1ccc(Cl)cc1 (stereo unspecified) + CCn1c(-c2cc(N3CCN(C)CC3)cnc2C(C)OC)c2c3cc(ccc31)-c1csc(n1)CC(NC(=O)C1CC1C)C(=O)N1CCCC(N1)C(=O)OCC(C)(C)C2
IC50 (second compound 0.000949 µM): < 0.0316 µM | IC50 (second compound 0.003 µM): < 0.0316 µM | IC50 (second compound 0.00949 µM): < 0.0316 µM | IC50 (second compound 0.03 µM): < 0.0316 µM | IC50 (second compound 0.0949 µM): < 0.0316 µM | IC50 (second compound 0.3 µM): < 0.0316 µM | viability, T/C (second compound 0.000949 µM, first compound 0.0316 µM): 40.8% | viability, T/C (second compound 0.000949 µM, first compound 0.1 µM): 36.3% | viability, T/C (second compound 0.000949 µM, first compound 0.316 µM): 29.3% | viability, T/C (second compound 0.000949 µM, first compound 1 µM): 23.7% | viability, T/C (second compound 0.000949 µM, first compound 3.16 µM): 18.2% | viability, T/C (second compound 0.000949 µM, first compound 10 µM): 16.4% | viability, T/C (second compound 0.003 µM, first compound 0.0316 µM): 22.7% | viability, T/C (second compound 0.003 µM, first compound 0.1 µM): 21.8% | viability, T/C (second compound 0.003 µM, first compound 0.316 µM): 17.9% | viability, T/C (second compound 0.003 µM, first compound 1 µM): 14.6% | viability, T/C (second compound 0.003 µM, first compound 3.16 µM): 11.9% | viability, T/C (second compound 0.003 µM, first compound 10 µM): 8.84% | viability, T/C (second compound 0.00949 µM, first compound 0.0316 µM): 15.5% | viability, T/C (second compound 0.00949 µM, first compound 0.1 µM): 16.6% | viability, T/C (second compound 0.00949 µM, first compound 0.316 µM): 15.6% | viability, T/C (second compound 0.00949 µM, first compound 1 µM): 14% | viability, T/C (second compound 0.00949 µM, first compound 3.16 µM): 10.2% | viability, T/C (second compound 0.00949 µM, first compound 10 µM): 7.3% | viability, T/C (second compound 0.03 µM, first compound 0.0316 µM): 11.7% | viability, T/C (second compound 0.03 µM, first compound 0.1 µM): 13.6% | viability, T/C (second compound 0.03 µM, first compound 0.316 µM): 12.6% | viability, T/C (second compound 0.03 µM, first compound 1 µM): 10.5% | viability, T/C (second compound 0.03 µM, first compound 3.16 µM): 7.29% | viability, T/C (second compound 0.03 µM, first compound 10 µM): 6.75% | viability, T/C (second compound 0.0949 µM, first compound 0.0316 µM): 10.1% | viability, T/C (second compound 0.0949 µM, first compound 0.1 µM): 9.26% | viability, T/C (second compound 0.0949 µM, first compound 0.316 µM): 7.76% | viability, T/C (second compound 0.0949 µM, first compound 1 µM): 7.82% | viability, T/C (second compound 0.0949 µM, first compound 3.16 µM): 7.22% | viability, T/C (second compound 0.0949 µM, first compound 10 µM): 6.12% | viability, T/C (second compound 0.3 µM, first compound 0.0316 µM): 8.98% | viability, T/C (second compound 0.3 µM, first compound 0.1 µM): 7.69% | viability, T/C (second compound 0.3 µM, first compound 0.316 µM): 8.06% | viability, T/C (second compound 0.3 µM, first compound 1 µM): 7.28% | viability, T/C (second compound 0.3 µM, first compound 3.16 µM): 6.22% | viability, T/C (second compound 0.3 µM, first compound 10 µM): 5.13%
